Test results: ChEMBL document CHEMBL3102850, “Microwave assisted synthesis of naphthopyrans catalysed by silica supported fluoroboric acid as a new class of non purine xanthine oxidase inhibitors” (Bioorg Med Chem Lett, 2014)

Legend:
[1] = target: T1, Xanthine dehydrogenase/oxidase (Bos taurus, UniProt P80457); experiment: Inhibition of bovine milk xanthine oxidase using xanthine as substrate assessed as decrease in uric acid formation at 50 uM preincubated for 5 mins; settings: cattle
[2] = target: T1, Xanthine dehydrogenase/oxidase; experiment: Inhibition of bovine milk xanthine oxidase using xanthine as substrate assessed as decrease in uric acid formation preincubated for 5 mins

T1 sequence (P80457 whole entry): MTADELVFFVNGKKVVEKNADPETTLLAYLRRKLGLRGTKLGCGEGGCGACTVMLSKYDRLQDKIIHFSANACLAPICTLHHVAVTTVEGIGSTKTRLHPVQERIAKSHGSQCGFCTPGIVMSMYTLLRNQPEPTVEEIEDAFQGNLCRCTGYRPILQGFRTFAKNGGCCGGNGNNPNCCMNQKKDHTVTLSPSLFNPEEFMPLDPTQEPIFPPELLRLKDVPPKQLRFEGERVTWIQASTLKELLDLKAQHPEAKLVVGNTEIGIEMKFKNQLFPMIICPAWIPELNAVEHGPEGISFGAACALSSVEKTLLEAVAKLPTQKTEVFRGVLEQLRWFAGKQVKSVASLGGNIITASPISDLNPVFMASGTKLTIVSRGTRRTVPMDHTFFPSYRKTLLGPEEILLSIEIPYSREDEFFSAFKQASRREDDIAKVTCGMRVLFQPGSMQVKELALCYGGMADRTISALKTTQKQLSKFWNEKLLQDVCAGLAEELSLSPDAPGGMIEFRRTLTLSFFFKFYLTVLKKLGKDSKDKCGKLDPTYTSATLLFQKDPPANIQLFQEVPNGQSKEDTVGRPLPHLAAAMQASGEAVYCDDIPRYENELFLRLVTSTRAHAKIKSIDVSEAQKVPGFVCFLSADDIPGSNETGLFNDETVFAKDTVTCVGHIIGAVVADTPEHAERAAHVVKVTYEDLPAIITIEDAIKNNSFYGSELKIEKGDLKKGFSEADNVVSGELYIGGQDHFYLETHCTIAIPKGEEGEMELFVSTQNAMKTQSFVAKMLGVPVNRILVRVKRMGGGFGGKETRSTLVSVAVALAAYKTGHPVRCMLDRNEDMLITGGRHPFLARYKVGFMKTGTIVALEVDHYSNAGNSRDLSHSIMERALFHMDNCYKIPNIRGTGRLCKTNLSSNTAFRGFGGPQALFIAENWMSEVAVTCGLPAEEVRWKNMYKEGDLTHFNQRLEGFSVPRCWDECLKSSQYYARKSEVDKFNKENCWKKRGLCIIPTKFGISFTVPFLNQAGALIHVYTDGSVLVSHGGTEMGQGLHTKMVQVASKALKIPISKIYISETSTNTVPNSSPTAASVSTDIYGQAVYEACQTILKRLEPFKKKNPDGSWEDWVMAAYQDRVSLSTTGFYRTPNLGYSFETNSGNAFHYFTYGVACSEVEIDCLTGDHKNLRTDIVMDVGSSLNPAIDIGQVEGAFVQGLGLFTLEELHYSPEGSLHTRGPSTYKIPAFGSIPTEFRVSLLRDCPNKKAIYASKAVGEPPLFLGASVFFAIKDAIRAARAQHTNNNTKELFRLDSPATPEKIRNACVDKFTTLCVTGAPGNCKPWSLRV

Row | SMILES | inhibition at 50 µM [1] [%] | IC50 [2] [µM]
1 | CCOC(=O)C1=C(C)Oc2ccc3ccccc3c2C1/C=C/c1ccccc1 (stereo unspecified) | 11.3 | –
2 | COC(=O)C1=C(C)Oc2ccc3ccccc3c2C1c1cccc(Oc2ccccc2)c1 (stereo unspecified) | 59.6 | –
3 | CCCCCC1C(C(=O)OC)=C(C)Oc2ccc3ccccc3c21 (stereo unspecified) | 58.9 | –
4 | COC(=O)C1=C(C)Oc2ccc3ccccc3c2C1c1ccccc1OC (stereo unspecified) | 58.8 | –
5 | COC(=O)C1=C(C)Oc2ccc3ccccc3c2C1c1ccc(OC)c(OC)c1 (stereo unspecified) | 78.2 | 17
6 | COC(=O)C1=C(C)Oc2ccc3ccccc3c2C1c1cc(OC)c(OC)c(OC)c1 (stereo unspecified) | 50 | –
7 | COC(=O)C1=C(C)Oc2ccc3ccccc3c2C1c1cccs1 (stereo unspecified) | 96.6 | 4
8 | CCOC(=O)C1=C(C)Oc2ccc3ccccc3c2C1c1ccc(OC)c(O)c1 (stereo unspecified) | 64.7 | –
9 | CCOC(=O)C1=C(C)Oc2ccc3ccccc3c2C1c1ccc(OC)c(OC)c1 (stereo unspecified) | 62.3 | –
10 | CCOC(=O)C1=C(C)Oc2ccc3ccccc3c2C1c1cccs1 (stereo unspecified) | 89 | 11.4
11 | CCOC(=O)C1=C(C)Oc2ccc3ccccc3c2C1c1ccco1 (stereo unspecified) | 88.6 | 13.2
12 | COC(=O)C1=C(C)Oc2ccc3ccccc3c2C1c1sccc1C (stereo unspecified) | 93.3 | 7.31
13 | COC(=O)C1=C(C)Oc2ccc3ccccc3c2C1 | 32 | –
14 | CCOC(=O)C1=C(C)Oc2ccc3ccccc3c2C1c1ccccc1 (stereo unspecified) | 65.2 | 44.4
15 | CCOC(=O)C1=C(C)Oc2ccc3ccccc3c2C1c1cccc(Oc2ccccc2)c1 (stereo unspecified) | 50.5 | –

Further lines, results first:

Row | inhibition at 50 µM [1] [%] | IC50 [2] [µM] | SMILES
16 | 67.5 | – | COC(=O)C1=C(C)Oc2ccc3ccccc3c2C1c1ccc(O)c(OC)c1 (stereo unspecified)
17 | 68.7 | 36.5 | COC(=O)C1=C(C)Oc2ccc3ccccc3c2C1c1ccc(OC)cc1 (stereo unspecified)
18 | 23.9 | – | COC(=O)C1=C(C)Oc2ccc3ccccc3c2C1c1ccc(Cl)cc1 (stereo unspecified)
19 | 25 | – | COC(=O)C1=C(C)Oc2ccc3ccccc3c2C1c1ccc([N+](=O)[O-])cc1 (stereo unspecified)
20 | 72.4 | 24 | COC(=O)C1=C(C)Oc2ccc3ccccc3c2C1c1ccc(O)cc1 (stereo unspecified)
21 | 69.3 | – | COC(=O)C1=C(C)Oc2ccc3ccccc3c2C1c1ccc(OC)c(O)c1 (stereo unspecified)
22 | 92.5 | 10 | COC(=O)C1=C(C)Oc2ccc3ccccc3c2C1c1ccco1 (stereo unspecified)
23 | 94.5 | 6.23 | COC(=O)C1=C(C)Oc2ccc3ccccc3c2C1c1ccc[nH]1 (stereo unspecified)
24 | 56.5 | – | CCOC(=O)C1=C(C)Oc2ccc3ccccc3c2C1c1ccc(OC)cc1 (stereo unspecified)
25 | 20.9 | – | CCOC(=O)C1=C(C)Oc2ccc3ccccc3c2C1c1ccc(Cl)cc1 (stereo unspecified)
26 | 21.4 | – | CCOC(=O)C1=C(C)Oc2ccc3ccccc3c2C1c1ccc([N+](=O)[O-])cc1 (stereo unspecified)
